Patent publication US20150272939A1, “Identification of Small Molecule Inhibitors of Jumonji AT-Rich Interactive Domain 1A (JARID1A) and 1B (JARID1B) Histone Demethylase” (Yale University, priority 2012, published 2015)
pIC50: −log10 of the molar value. “And” between values parts separate entries of the source, which are not always exact repeats. Equal entries are not always repeated. Where two headings read alike, the source gives them in different places.

Tests used:
JARID1B = target: T1, JARID1B (Homo sapiens, UniProt Q9UGL1); assay: FLAG-JARID1B histone demethylase assay with AlphaScreen detection (HTS and dose response); format: biochemical; conditions: for inhibition at 20 µM: read-out: Inhibitory effect (percent);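 as to Assay Signal (percent): compound tested at 20 µM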;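 as to Assay − Artifact Signal (percent): compound tested at 20 µM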;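 as to all read-outs here: FLAG-tagged JARID1B at 4 nM acting on a biotinylated H3K4me3 peptide, demethylation read by AlphaScreen luminescence, with hits checked against bio-H3K4me2 without enzyme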
T1 construct: The FLAG tagged full length JARID1B enzyme was expressed in Sf21 insect cells using FLAG-JARID1B baculoviruses; FLAG (N); made in house; host or cells: Sf21 insect cells (baculovirus)
T1 sequence (Q9UGL1 whole entry): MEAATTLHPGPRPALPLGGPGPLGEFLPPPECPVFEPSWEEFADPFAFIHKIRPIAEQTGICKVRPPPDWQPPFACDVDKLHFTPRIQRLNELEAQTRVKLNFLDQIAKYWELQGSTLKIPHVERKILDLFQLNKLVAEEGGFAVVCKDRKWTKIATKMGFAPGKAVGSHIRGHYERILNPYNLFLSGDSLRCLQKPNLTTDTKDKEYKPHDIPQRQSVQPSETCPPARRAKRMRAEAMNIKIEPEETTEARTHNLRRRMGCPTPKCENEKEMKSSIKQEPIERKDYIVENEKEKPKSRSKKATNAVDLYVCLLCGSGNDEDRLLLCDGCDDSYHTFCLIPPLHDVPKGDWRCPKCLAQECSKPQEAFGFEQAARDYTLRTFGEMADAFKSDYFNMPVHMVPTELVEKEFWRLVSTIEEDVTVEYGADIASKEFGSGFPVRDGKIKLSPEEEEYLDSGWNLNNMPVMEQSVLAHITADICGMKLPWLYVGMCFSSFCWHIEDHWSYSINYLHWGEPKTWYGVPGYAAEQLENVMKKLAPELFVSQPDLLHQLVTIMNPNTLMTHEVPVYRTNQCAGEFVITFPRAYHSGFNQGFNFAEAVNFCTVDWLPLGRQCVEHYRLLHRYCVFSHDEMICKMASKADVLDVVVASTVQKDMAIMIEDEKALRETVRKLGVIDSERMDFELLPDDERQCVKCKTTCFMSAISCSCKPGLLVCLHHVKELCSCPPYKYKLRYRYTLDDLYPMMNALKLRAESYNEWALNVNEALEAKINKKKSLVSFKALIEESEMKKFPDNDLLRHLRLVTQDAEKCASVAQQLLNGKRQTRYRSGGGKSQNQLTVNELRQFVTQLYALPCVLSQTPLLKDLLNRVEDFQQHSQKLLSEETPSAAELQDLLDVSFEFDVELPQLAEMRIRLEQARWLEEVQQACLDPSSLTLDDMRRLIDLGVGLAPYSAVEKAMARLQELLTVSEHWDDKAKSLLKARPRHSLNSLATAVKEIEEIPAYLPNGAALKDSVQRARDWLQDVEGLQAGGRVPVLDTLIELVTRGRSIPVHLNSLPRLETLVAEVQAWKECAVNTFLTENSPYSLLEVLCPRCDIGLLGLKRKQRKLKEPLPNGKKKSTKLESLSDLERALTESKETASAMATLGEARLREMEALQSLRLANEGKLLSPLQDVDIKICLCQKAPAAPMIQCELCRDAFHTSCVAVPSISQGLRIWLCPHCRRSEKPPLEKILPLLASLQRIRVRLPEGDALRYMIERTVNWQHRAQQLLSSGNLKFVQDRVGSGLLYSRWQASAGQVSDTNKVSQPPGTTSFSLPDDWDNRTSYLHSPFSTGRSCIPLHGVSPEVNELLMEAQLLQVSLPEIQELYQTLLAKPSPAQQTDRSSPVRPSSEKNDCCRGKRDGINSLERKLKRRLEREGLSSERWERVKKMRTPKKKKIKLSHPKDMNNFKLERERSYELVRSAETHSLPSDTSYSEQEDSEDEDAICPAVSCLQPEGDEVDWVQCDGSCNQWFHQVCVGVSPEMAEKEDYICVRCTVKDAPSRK

JARID1A = target: T2, JARID1A (Homo sapiens, UniProt P29375); assay: FLAG-JARID1A histone demethylase assay with AlphaScreen detection (HTS and dose response); format: biochemical; conditions: for pIC50: dose response, 50 μM Fe (II), read-out: IC50 against JARID1A
T2 construct: the high-throughput screen of the invention utilizes full length JARID1A or JARID1B; FLAG (N); made in house; host or cells: Sf21 insect cells (baculovirus)
T2 sequence (P29375 whole entry): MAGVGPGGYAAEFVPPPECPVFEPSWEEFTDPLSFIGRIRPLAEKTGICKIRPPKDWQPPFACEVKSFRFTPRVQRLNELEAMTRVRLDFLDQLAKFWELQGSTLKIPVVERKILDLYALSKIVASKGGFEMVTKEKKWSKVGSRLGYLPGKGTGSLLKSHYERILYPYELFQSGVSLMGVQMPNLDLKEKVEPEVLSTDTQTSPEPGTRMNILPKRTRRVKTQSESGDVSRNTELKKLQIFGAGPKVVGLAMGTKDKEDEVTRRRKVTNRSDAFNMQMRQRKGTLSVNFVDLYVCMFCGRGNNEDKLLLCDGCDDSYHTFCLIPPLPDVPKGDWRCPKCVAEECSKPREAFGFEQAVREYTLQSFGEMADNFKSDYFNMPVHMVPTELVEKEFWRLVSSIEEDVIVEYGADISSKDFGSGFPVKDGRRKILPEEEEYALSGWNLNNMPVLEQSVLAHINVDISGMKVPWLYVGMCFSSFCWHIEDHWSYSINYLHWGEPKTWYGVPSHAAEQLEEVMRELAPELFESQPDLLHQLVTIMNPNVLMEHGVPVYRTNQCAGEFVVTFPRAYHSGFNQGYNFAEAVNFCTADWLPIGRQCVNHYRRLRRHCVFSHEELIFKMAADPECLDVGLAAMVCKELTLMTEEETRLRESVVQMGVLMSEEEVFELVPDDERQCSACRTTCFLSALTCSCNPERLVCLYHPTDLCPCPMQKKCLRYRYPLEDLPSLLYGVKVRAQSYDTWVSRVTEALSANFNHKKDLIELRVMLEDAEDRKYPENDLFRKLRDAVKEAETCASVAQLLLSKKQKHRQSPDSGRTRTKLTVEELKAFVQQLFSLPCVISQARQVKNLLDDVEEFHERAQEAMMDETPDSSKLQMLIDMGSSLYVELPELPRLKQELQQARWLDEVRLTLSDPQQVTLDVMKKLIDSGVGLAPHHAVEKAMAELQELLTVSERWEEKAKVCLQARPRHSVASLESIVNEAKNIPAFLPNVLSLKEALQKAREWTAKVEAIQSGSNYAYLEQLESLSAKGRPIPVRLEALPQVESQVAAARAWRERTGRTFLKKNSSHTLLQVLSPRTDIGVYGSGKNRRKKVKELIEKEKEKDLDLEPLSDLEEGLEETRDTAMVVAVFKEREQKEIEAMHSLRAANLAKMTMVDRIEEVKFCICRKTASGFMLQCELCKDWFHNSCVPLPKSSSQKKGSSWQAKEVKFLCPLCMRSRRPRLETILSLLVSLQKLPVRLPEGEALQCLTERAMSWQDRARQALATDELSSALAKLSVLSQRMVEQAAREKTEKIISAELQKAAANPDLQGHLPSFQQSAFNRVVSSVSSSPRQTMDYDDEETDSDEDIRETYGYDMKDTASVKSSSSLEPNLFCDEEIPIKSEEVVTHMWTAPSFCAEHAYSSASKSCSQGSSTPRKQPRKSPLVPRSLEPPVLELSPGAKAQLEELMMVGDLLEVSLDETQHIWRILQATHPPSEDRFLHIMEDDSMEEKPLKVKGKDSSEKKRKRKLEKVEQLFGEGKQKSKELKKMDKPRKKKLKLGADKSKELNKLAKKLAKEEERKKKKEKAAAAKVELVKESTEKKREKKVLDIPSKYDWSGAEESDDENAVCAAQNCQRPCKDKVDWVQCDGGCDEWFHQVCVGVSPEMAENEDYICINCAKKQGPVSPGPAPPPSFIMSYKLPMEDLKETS
Procedure: (§1) Histone demethylase assays were performed in 384 well white plates (Corning 3574). Demethylase buffer conditions for FLAG-JARID1B were as follows: 10 μM α-KG, 100 μM ascorbate, 50 μM (NH4)2Fe(SO4)2, 50 mM Hepes (pH 7.5), 0.01% (v/v) Tween 20, and 0.1% (w/v) bovine serum albumin. The demethylase reactions included 64 nM bio-H3K4me3 peptide alone or in the presence of 4 nM FLAG-JARID1B enzyme in a 10 μl reaction at 25° C. for 30 minutes. As a positive control, 64 nM bio-H3K4me2 peptide was assayed in the absence of enzyme. Assay conditions for FLAG-JARID1C is the same as for FLAG-JARID1B except that 20 nM enzyme was used. For FLAG-JARID1A, the demethylase buffer was similar to FLAG-JARID1B, except that 125 μM α-KG and 13 nM FLAG-JARID1A enzyme were used. The His-FLAG-UTX and FLAG-JMJD3 demethylase assays also employed the same buffer conditions as for FLAG-JARID1B, with 64 nM bio-H3K27me3 peptide assayed with or without 25 nM His-FLAG-UTX enzyme or 50 nM FLAG-JMJD3 (BPS Bioscience, 50115), and 64 nM bio-H3K27me2 peptide as a positive control. JARID1A, JARID1C, UTX, and JMJD3 histone demethylase assays proceeded at 37° C. for 1 hour.
(§2) The AlphaScreen General IgG (Protein A) detection kit was obtained from PerkinElmer. Demethylated H3K4 products were detected using AlphaScreen antibody/bead mix containing 7.5 mM ethylenediaminetetraacetic acid (EDTA) and 0.15 μg/ml anti-H3K4me1 antibody in a final volume of 20 μl. For detection of demethylated H3K27 products, the AlphaScreen antibody/bead mix containing 7.5 mM EDTA and 0.15 μg/ml anti-H3K27me2 antibody in a final volume of 20 μl. The luminescence signal was measured using the Envision (PerkinElmer) or Pherastar (BMG Labtech) Platereaders.
FLAG-JARID1A was screened against 9,600 compounds. These compound libraries were from the Yale Center for Molecular Discovery. The libraries screened include the MicroSource Gen-Plus, MicroSource Pure Natural Products, NIH Clinical Collection, Enzo Epigenetics, and ChemBridge MW-Set libraries. Compounds dissolved in dimethyl sulfoxide (DMSO) were pintooled into a 384 well plate containing bio-H3K4me3 peptide in demethylase buffer to a final concentration of 20 μM. The reactions were initiated by the addition of 13 nM FLAG-JARID1A, and detected as described above. To eliminate the false positive hits, a counterscreen was performed against bio-H3K4me2 in the absence of enzyme.

JARID1C = target: T3, JARID1C (Homo sapiens, UniProt P41229); assay: FLAG-JARID1C histone demethylase assay with AlphaScreen detection; format: biochemical; conditions: compound 10 μM, 64 nM bio-H3K4me3 peptide
T3 construct: FLAG (N); made in house; host or cells: Sf21 insect cells (baculovirus)
T3 sequence (P41229 whole entry): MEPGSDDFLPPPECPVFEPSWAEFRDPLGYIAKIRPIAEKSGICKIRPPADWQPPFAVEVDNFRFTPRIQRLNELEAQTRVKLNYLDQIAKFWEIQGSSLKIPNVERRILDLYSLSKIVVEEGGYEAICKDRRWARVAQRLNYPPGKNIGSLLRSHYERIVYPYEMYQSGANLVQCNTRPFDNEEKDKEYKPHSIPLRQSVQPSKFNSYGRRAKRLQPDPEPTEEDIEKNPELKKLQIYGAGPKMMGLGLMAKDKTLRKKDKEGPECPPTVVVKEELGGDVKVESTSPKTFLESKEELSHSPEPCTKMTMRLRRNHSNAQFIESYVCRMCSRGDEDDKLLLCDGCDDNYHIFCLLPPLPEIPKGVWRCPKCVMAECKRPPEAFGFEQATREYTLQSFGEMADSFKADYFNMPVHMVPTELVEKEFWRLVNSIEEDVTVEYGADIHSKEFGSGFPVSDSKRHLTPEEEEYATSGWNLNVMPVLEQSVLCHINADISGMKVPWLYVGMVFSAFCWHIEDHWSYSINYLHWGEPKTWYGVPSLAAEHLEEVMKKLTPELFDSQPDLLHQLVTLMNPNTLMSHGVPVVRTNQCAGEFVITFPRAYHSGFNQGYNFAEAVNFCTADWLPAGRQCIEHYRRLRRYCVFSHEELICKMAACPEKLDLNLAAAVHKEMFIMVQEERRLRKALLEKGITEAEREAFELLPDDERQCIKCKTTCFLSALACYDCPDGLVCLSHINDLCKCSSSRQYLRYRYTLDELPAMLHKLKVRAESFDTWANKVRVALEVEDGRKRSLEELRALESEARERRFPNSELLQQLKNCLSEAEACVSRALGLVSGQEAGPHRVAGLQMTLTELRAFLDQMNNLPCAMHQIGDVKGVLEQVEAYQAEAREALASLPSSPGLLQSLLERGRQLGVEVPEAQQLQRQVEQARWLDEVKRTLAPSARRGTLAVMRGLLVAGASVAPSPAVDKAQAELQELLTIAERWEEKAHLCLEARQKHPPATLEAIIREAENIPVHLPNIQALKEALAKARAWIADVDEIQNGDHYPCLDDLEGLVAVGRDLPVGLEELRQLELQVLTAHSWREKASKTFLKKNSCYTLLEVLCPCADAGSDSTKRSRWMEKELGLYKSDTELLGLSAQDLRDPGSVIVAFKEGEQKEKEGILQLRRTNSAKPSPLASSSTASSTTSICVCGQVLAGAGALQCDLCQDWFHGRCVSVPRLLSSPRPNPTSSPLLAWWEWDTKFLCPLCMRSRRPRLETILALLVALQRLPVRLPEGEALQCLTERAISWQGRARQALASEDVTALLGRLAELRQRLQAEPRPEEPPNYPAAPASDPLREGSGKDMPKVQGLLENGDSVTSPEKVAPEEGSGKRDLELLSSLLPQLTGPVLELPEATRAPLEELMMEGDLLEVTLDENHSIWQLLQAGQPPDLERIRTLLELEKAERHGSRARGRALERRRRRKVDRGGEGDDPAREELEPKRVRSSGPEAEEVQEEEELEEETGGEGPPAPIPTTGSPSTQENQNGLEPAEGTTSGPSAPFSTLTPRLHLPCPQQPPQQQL
Procedure: as §1, §2

UTX = target: T4, UTX (Homo sapiens, UniProt O15550); assay: His-FLAG-UTX H3K27me3 demethylase assay with AlphaScreen detection; format: biochemical; conditions: compound 10 μM, 64 nM bio-H3K27me3 peptide
T4 construct: His (N); FLAG (N); made in house; host or cells: Sf21 insect cells (baculovirus)
Procedure: as §1, with “The His-FLAG-UTX and FLAG-JMJD3 demethylase assays also employed the same buffer conditions as for FLAG-JARID1B, with 64 nM bio-H3K27me3 peptide assayed with or without 25 nM His-FLAG-UTX enzyme or 50 nM FLAG-JMJD3 (BPS Bioscience, 50115), and 64 nM bio-H3K27me2 peptide as a positive control. JARID1A, JARID1C, UTX, and JMJD3 histone demethylase assays proceeded at 37° C. for 1 hour.” left out
as §2, with “For detection of demethylated H3K27 products, the AlphaScreen antibody/bead mix containing 7.5 mM EDTA and 0.15 μg/ml anti-H3K27me2 antibody in a final volume of 20 μl.” left out

[1] = AlphaScreen counterscreen against bio-H3K4me2 peptide in the absence of enzyme (artifact signal); conditions: for Artifact Signal (percent): effect of the compound when incubated with bio-H3K4me2 peptide (counterscreen, no enzyme); for Artifact signal: effect of the compound when it is incubated with bio-H3K4me2 peptide: counterscreen, no enzyme;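 as to all read-outs here: counterscreen run without enzyme against bio-H3K4me2 peptide to remove false positive hits from the JARID1 demethylase AlphaScreen screen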
[2] = compound 10 μM, 64 nM bio-H3K4me3 peptide
[3] = assay signal minus artifact signal
[4] = high-throughput screen, compound 20 μM, standard demethylase conditions (10 μM α-KG, 50 μM Fe (II))
[5] = validation of HTS actives, effect of compound in JARID1B AlphaScreen assay

Row | Compound | Assay − Artifact Signal (percent) (JARID1B; [3]) | inhibition at 20 µM (JARID1B; [4]) | Assay Signal (percent) (JARID1B; [5]) | Artifact Signal (percent) [1] | other results
1 | O=C(O)c1ccnc(C(=O)O)c1 [2,4-PDCA, 2,4-pyridinedicarboxylic acid monohydrate, reference compound] | – | – | – | – | JARID1B demethylase activity (JARID1B; [2]): inhibited; JARID1A demethylase activity (JARID1A; [2]): inhibited; pIC50 (JARID1A): 5.39 and ~5.40; JARID1C demethylase activity (JARID1C): inhibited; UTX demethylase activity (UTX): did not inhibit
2 | Sc1ncnc2nc[nH]c12 [Mercaptopurine] | – | – | – | – | pIC50 (JARID1A): ~6.00
3 | C[C@](N)(Cc1ccc(O)c(O)c1)C(=O)O [Methyldopa] | – | – | – | – | pIC50 (JARID1A): < 6.00
4 | COc1ccc(OC)c(Nc2nc(=O)c3cccnc3s2)c1 [YU151897] | 42.55% | 47.6% | 40.43% | −2.12% | pIC50 (JARID1A): ≥ 5.52
5 | CCC(=O)Nc1cnc(N2CCN(c3ccc(Cl)cc3)CC2)c(C(=O)O)c1 [YU208250] | 14.69% | 44.5% | 21.70% | 7.01% | –
6 | O=c1c(O[C@@H]2O[C@H](CO)[C@@H](O)[C@H](O)[C@H]2O)c(-c2ccc(O)c(O)c2)oc2cc(O)cc(O)c12 [YU221011, Isoquercitrin, reference compound] | 36.99% | 45.1% | 52.16% | 15.17% | –
7 | O=c1c(O[C@@H]2O[C@H](CO)[C@H](O)[C@H](O)[C@H]2O)c(-c2ccc(O)c(O)c2)oc2cc(O)cc(O)c12 [YU221013, HYPEROSIDE, reference compound] | 41.83% | 44.9% | 51.29% | 9.46% | –
8 | CCC1=C[C@H]2CN(C1)Cc1c([nH]c3ccccc13)[C@@](C(=O)OC)(c1cc3c(cc1OC)N(C)[C@H]1[C@@](O)(C(=O)OC)[C@H](OC(C)=O)[C@]4(CC)C=CC[N@]5CC[C@]31[C@@H]54)C2.O=C(O)C(O)C(O)C(=O)O [YU221030, V[…], reference compound] | – | – | – | 18.13% | Assay Signal (percent) (JARID1B): 38.77%; Assay − Artifact Signal (percent) (JARID1B): 20.64%; inhibition at 20 µM (JARID1B): 42.2%
9 | CC[C@]1(O)C[C@H]2CN(CCc3c([nH]c4ccccc34)[C@@](C(=O)OC)(c3cc4c(cc3OC)N(C=O)[C@H]3[C@@](O)(C(=O)OC)[C@H](OC(C)=O)[C@]5(CC)C=CCN6CC[C@]43[C@@H]65)C2)C1.O=S(=O)(O)O [YU221071, VINCRISTINE SULFATE, reference compound] | – | – | – | – | Inhibitory effect (percent) (JARID1B): 44.20%; Validation effect minus artifact signal (JARID1B): 1.86; Validation result of HTS active: effect of the compound in the JARID1B AlphaScreen demethylase assay (JARID1B): 0.59; Artifact signal: effect of the compound when it is incubated with bio-H3K4me2 peptide [1]: −1.27
10 | O=C1C=CC(=O)[C@@H](Br)[C@@H]1Br [YU221139] | 23.33% | 58.7% | 30.40% | 7.07% | –
11 | COC(=O)c1cc(Br)c(OCc2ccccc2)c(CO[Si](C(C)(C)C)(C(C)(C)C)C(C)(C)C)c1OCc1ccccc1 [YU221143] | 26.59% | 40.9% | 22.60% | −3.99% | –
12 | O=C(O)c1ccnc(C(=O)O)c1 [YU221215, 2,4-Pyridinedicarboxylic Acid, reference compound] | 96.69% | – | 99.69% | 3.00% | inhibition at 20 µM (JARID1B; high-throughput screen, compound 20 μM, IDs marked *: additional hits under reaction condition with 1 mM α-KG): 40.8%
13 | BACITRACIN [YU033699, reference compound] | – | – | – | – | Inhibitory effect (percent) (JARID1B; [4]): 74.07%; Validation result of HTS active: effect of the compound in the JARID1B AlphaScreen demethylase assay (JARID1B; validation of HTS actives, total signal before subtraction of artifact signal): 6.01; Artifact signal: effect of the compound when it is incubated with bio-H3K4me2 peptide [1]: −1.65
14 | CALCEIN [YU034124, reference compound] | 36.96% | – | 33.76% | −3.21% | Inhibitory effect (percent) (JARID1B; [4]): 60.48%
15 | CARMINIC ACID [YU155214, reference compound] | 54.26% | – | 78.58% | 24.32% | Inhibitory effect (percent) (JARID1B; [4]): 65.23%
